Assay results reported in ChEMBL document CHEMBL3045485, “Synthesis of combretastatin analogs: evaluation of in vitro anticancer activity and molecular docking studies” (Med Chem Res, 2012).

Columns and labels:
A549 [1] = assay: Cytotoxicity against Homo sapiens (human) A549 cells assessed as growth inhibition at 5 x 10^-5 mole after 48 hr by SRB assay; assay type: functional
PC-3 [2] = assay: Cytotoxicity against Homo sapiens (human) PC3 cells assessed as growth inhibition at 5 x 10^-5 mole after 48 hr by SRB assay; assay type: functional
PC-3 [3] = assay: Cytotoxicity against Homo sapiens (human) PC3 cells assessed as growth inhibition at 1 x 10^-4 mole after 48 hr by SRB assay; assay type: functional
SF-295 [4] = assay: Cytotoxicity against Homo sapiens (human) SF295 cells assessed as growth inhibition at 1 x 10^-4 mole after 48 hr by SRB assay; assay type: functional
MCF7 [5] = assay: Cytotoxicity against Homo sapiens (human) MCF-7 cells assessed as growth inhibition at 5 x 10^-5 mole after 48 hr by SRB assay; assay type: functional
SF-295 [6] = assay: Cytotoxicity against Homo sapiens (human) SF295 cells assessed as growth inhibition at 5 x 10^-5 mole after 48 hr by SRB assay; assay type: functional
IGROV-1 [7] = assay: Cytotoxicity against Homo sapiens (human) IGROV1 cells assessed as growth inhibition at 1 x 10^-4 mole after 48 hr by SRB assay; assay type: functional
A549 [8] = assay: Cytotoxicity against Homo sapiens (human) A549 cells assessed as growth inhibition at 1 x 10^-4 mole after 48 hr by SRB assay; assay type: functional
IGROV-1 [9] = assay: Cytotoxicity against Homo sapiens (human) IGROV1 cells assessed as growth inhibition at 5 x 10^-5 mole after 48 hr by SRB assay; assay type: functional
COLO 205 [10] = assay: Cytotoxicity against Homo sapiens (human) COLO205 cells after 48 hr by SRB assay; assay type: functional, cell-based; details: COLO 205, 48 h, pooled result: one value given for 7 cell lines, strains, targets or settings
MCF7 [11] = assay: Cytotoxicity against Homo sapiens (human) MCF-7 cells assessed as growth inhibition at 1 x 10^-4 mole after 48 hr by SRB assay; assay type: functional
COLO 205 [12] = assay: Cytotoxicity against Homo sapiens (human) COLO205 cells assessed as growth inhibition at 1 x 10^-4 mole after 48 hr by SRB assay; assay type: functional
COLO 205 [13] = assay: Cytotoxicity against Homo sapiens (human) COLO205 cells assessed as growth inhibition at 5 x 10^-5 mole after 48 hr by SRB assay; assay type: functional
THP-1 [14] = assay: Cytotoxicity against Homo sapiens (human) THP1 cells assessed as growth inhibition at 5 x 10^-5 mole after 48 hr by SRB assay; assay type: functional
THP-1 [15] = assay: Cytotoxicity against Homo sapiens (human) THP1 cells assessed as growth inhibition at 1 x 10^-4 mole after 48 hr by SRB assay; assay type: functional
PC-3 [16] = assay: Cytotoxicity against Homo sapiens (human) PC3 cells assessed as growth inhibition at 1 x 10^-5 mole after 48 hr by SRB assay; assay type: functional
MCF7 [17] = assay: Cytotoxicity against Homo sapiens (human) MCF-7 cells assessed as growth inhibition at 1 x 10^-5 mole after 48 hr by SRB assay; assay type: functional
A549 [18] = assay: Cytotoxicity against Homo sapiens (human) A549 cells assessed as growth inhibition at 1 x 10^-5 mole after 48 hr by SRB assay; assay type: functional
IGROV-1 [19] = assay: Cytotoxicity against Homo sapiens (human) IGROV1 cells assessed as growth inhibition at 1 x 10^-5 mole after 48 hr by SRB assay; assay type: functional

O=C(O)/C(=C\c1ccccc1)c1ccccc1
growth inhibition (GI) (A549 [1]): 52%
growth inhibition (GI) (PC-3 [2]): 0%
growth inhibition (GI) (PC-3 [3]): 4%
growth inhibition (GI) (SF-295 [4]): 25%
growth inhibition (GI) (MCF7 [5]): 29%
growth inhibition (GI) (SF-295 [6]): 14%
growth inhibition (GI) (IGROV-1 [7]): 0%
growth inhibition (GI) (A549 [8]): 54%
growth inhibition (GI) (IGROV-1 [9]): 0%
IC50 (COLO 205 [10]): 85.4 µM
growth inhibition (GI) (MCF7 [11]): 41%

O=C(O)/C(=C\c1cccc(O)c1O)c1ccccc1
growth inhibition (GI) (A549 [1]): 52%
growth inhibition (GI) (PC-3 [2]): 31%
growth inhibition (GI) (PC-3 [3]): 74%
growth inhibition (GI) (MCF7 [5]): 14%
growth inhibition (GI) (IGROV-1 [7]): 31%
growth inhibition (GI) (A549 [8]): 52%
growth inhibition (GI) (IGROV-1 [9]): 15%
IC50 (COLO 205 [10]): 96.5 µM
growth inhibition (GI) (MCF7 [11]): 26%

O=C(O)/C(=C\c1ccc(Cl)cc1)c1ccccc1
growth inhibition (GI) (A549 [1]): 61%
growth inhibition (GI) (PC-3 [2]): 14%
growth inhibition (GI) (PC-3 [3]): 42%
growth inhibition (GI) (MCF7 [5]): 10%
growth inhibition (GI) (IGROV-1 [7]): 0%
growth inhibition (GI) (A549 [8]): 61%
growth inhibition (GI) (IGROV-1 [9]): 0%
IC50 (COLO 205 [10]): 34 µM
growth inhibition (GI) (MCF7 [11]): 22%

CC(=O)Oc1ccccc1/C=C(\C(=O)O)c1ccccc1
growth inhibition (GI) (A549 [1]): 10%
growth inhibition (GI) (PC-3 [2]): 53%
growth inhibition (GI) (PC-3 [3]): 60%
growth inhibition (GI) (MCF7 [5]): 6%
growth inhibition (GI) (IGROV-1 [7]): 18%
growth inhibition (GI) (A549 [8]): 10%
growth inhibition (GI) (IGROV-1 [9]): 6%
growth inhibition (GI) (MCF7 [11]): 20%

O=C(O)/C(=C\c1cccc(Cl)c1)c1ccccc1
growth inhibition (GI) (A549 [1]): 32%
growth inhibition (GI) (PC-3 [2]): 30%
growth inhibition (GI) (PC-3 [3]): 68%
growth inhibition (GI) (MCF7 [5]): 0%
growth inhibition (GI) (IGROV-1 [7]): 38%
growth inhibition (GI) (A549 [8]): 32%
growth inhibition (GI) (IGROV-1 [9]): 0%
growth inhibition (GI) (MCF7 [11]): 0%

O=C(O)/C(=C\c1ccccc1Cl)c1ccccc1
growth inhibition (GI) (A549 [1]): 12%
growth inhibition (GI) (PC-3 [2]): 36%
growth inhibition (GI) (PC-3 [3]): 52%
growth inhibition (GI) (MCF7 [5]): 5%
growth inhibition (GI) (IGROV-1 [7]): 42%
growth inhibition (GI) (A549 [8]): 12%
growth inhibition (GI) (IGROV-1 [9]): 32%
growth inhibition (GI) (MCF7 [11]): 10%

O=C(O)/C(=C\c1cccc2ccccc12)c1ccccc1
growth inhibition (GI) (A549 [1]): 0%
growth inhibition (GI) (PC-3 [2]): 26%
growth inhibition (GI) (PC-3 [3]): 35%
growth inhibition (GI) (COLO 205 [12]): 70%
growth inhibition (GI) (A549 [8]): 0%
growth inhibition (GI) (COLO 205 [13]): 51%
growth inhibition (GI) (THP-1 [14]): 0%
IC50 (COLO 205 [10]): > 100 µM
growth inhibition (GI) (THP-1 [15]): 22%

COc1ccc(OC)c(/C=C(\C(=O)O)c2ccccc2)c1
growth inhibition (GI) (A549 [1]): 0%
growth inhibition (GI) (PC-3 [2]): 0%
growth inhibition (GI) (PC-3 [3]): 0%
growth inhibition (GI) (COLO 205 [12]): 0%
growth inhibition (GI) (A549 [8]): 10%
growth inhibition (GI) (COLO 205 [13]): 0%
growth inhibition (GI) (THP-1 [14]): 0%
growth inhibition (GI) (THP-1 [15]): 4%

COc1ccc(/C=C(\C(=O)O)c2ccccc2)c(OC)c1OC
growth inhibition (GI) (A549 [1]): 0%
growth inhibition (GI) (PC-3 [2]): 0%
growth inhibition (GI) (PC-3 [3]): 7%
growth inhibition (GI) (COLO 205 [12]): 0%
growth inhibition (GI) (A549 [8]): 0%
growth inhibition (GI) (COLO 205 [13]): 0%
growth inhibition (GI) (THP-1 [14]): 0%
growth inhibition (GI) (THP-1 [15]): 0%

O=C(O)/C(=C\c1ccccc1[N+](=O)[O-])c1ccccc1
growth inhibition (GI) (A549 [1]): 15%
growth inhibition (GI) (PC-3 [2]): 10%
growth inhibition (GI) (PC-3 [3]): 22%
growth inhibition (GI) (COLO 205 [12]): 60%
growth inhibition (GI) (A549 [8]): 25%
growth inhibition (GI) (COLO 205 [13]): 32%
growth inhibition (GI) (THP-1 [14]): 0%
growth inhibition (GI) (THP-1 [15]): 0%

O=C(O)/C(=C\C=C\c1ccccc1)c1ccccc1
growth inhibition (GI) (A549 [1]): 10%
growth inhibition (GI) (PC-3 [2]): 0%
growth inhibition (GI) (PC-3 [3]): 9%
growth inhibition (GI) (COLO 205 [12]): 44%
growth inhibition (GI) (A549 [8]): 43%
growth inhibition (GI) (COLO 205 [13]): 15%
growth inhibition (GI) (THP-1 [14]): 8%
growth inhibition (GI) (THP-1 [15]): 35%

COc1cc(OC)c(OC)cc1/C=C(\C(=O)O)c1ccccc1
growth inhibition (GI) (A549 [1]): 0%
growth inhibition (GI) (PC-3 [2]): 4%
growth inhibition (GI) (PC-3 [3]): 28%
growth inhibition (GI) (COLO 205 [12]): 16%
growth inhibition (GI) (A549 [8]): 20%
growth inhibition (GI) (COLO 205 [13]): 5%
growth inhibition (GI) (THP-1 [14]): 0%
growth inhibition (GI) (THP-1 [15]): 21%

COc1ccc(/C=C(\C(=O)O)c2ccccc2)cc1O
growth inhibition (GI) (A549 [1]): 0%
growth inhibition (GI) (PC-3 [2]): 12%
growth inhibition (GI) (PC-3 [3]): 23%
growth inhibition (GI) (SF-295 [4]): 12%
growth inhibition (GI) (MCF7 [5]): 14%
growth inhibition (GI) (SF-295 [6]): 0%
growth inhibition (GI) (IGROV-1 [7]): 17%
growth inhibition (GI) (A549 [8]): 20%
growth inhibition (GI) (IGROV-1 [9]): 8%
growth inhibition (GI) (MCF7 [11]): 24%

O=C(O)/C(=C\c1ccc2c(c1)OCO2)c1ccccc1
growth inhibition (GI) (A549 [1]): 0%
growth inhibition (GI) (PC-3 [2]): 11%
growth inhibition (GI) (PC-3 [3]): 39%
growth inhibition (GI) (SF-295 [4]): 38%
growth inhibition (GI) (MCF7 [5]): 32%
growth inhibition (GI) (SF-295 [6]): 15%
growth inhibition (GI) (IGROV-1 [7]): 32%
growth inhibition (GI) (A549 [8]): 45%
growth inhibition (GI) (IGROV-1 [9]): 0%
growth inhibition (GI) (MCF7 [11]): 39%

COc1cc(/C=C(\C(=O)O)c2ccccc2)cc(OC)c1OC
growth inhibition (GI) (A549 [1]): 21%
growth inhibition (GI) (PC-3 [2]): 10%
growth inhibition (GI) (PC-3 [3]): 22%
growth inhibition (GI) (SF-295 [4]): 25%
growth inhibition (GI) (MCF7 [5]): 54%
growth inhibition (GI) (SF-295 [6]): 13%
growth inhibition (GI) (IGROV-1 [7]): 1%
growth inhibition (GI) (A549 [8]): 65%
growth inhibition (GI) (IGROV-1 [9]): 0%
IC50 (COLO 205 [10]): 88 µM
growth inhibition (GI) (MCF7 [11]): 63%

COc1cccc(/C=C(\C(=O)O)c2ccccc2)c1OC
growth inhibition (GI) (A549 [1]): 60%
growth inhibition (GI) (PC-3 [2]): 2%
growth inhibition (GI) (PC-3 [3]): 4%
growth inhibition (GI) (SF-295 [4]): 24%
growth inhibition (GI) (MCF7 [5]): 25%
growth inhibition (GI) (SF-295 [6]): 8%
growth inhibition (GI) (IGROV-1 [7]): 11%
growth inhibition (GI) (A549 [8]): 89%
growth inhibition (GI) (IGROV-1 [9]): 6%
IC50 (COLO 205 [10]): 3.9 µM
growth inhibition (GI) (MCF7 [11]): 52%

CO[C@@]12[C@H](COC(N)=O)C3=C(C(=O)C(C)=C(N)C3=O)N1C[C@@H]1N[C@@H]12 [MITOMYCIN]
growth inhibition (GI) (PC-3 [16]): 58%
growth inhibition (GI) (MCF7 [17]): 65%

CC(=O)O[C@H]1C(=O)[C@@]2(C)[C@H]([C@H](OC(=O)c3ccccc3)[C@]3(O)C[C@H](OC(=O)[C@H](O)[C@@H](NC(=O)c4ccccc4)c4ccccc4)C(C)=C1C3(C)C)[C@]1(OC(C)=O)CO[C@@H]1C[C@@H]2O [PACLITAXEL]
growth inhibition (GI) (A549 [18]): 67%
growth inhibition (GI) (IGROV-1 [19]): 66%
